Patent US20240199525A1, “SHP2-Targeting Small Molecules For Use As Anti-Cancer Agents” (West Virginia University Board of Governors on behalf of …, priority 2022, published 2024)
Where two headings read alike, the source gives them in different places. Each block holds one compound with its values, some of them ahead of it.

How the values were obtained:
[1] = target: T1, purified PTP domain of SHP2 (Homo sapiens (Human), UniProt Q06124); test: PTPase assay with DiFMUP, SHP2; type: biochemical; conditions: for fold difference: SHP2 IC50 relative to CNBCA; for IC50: 1 nM enzyme, 20 μM DiFMUP, 37° C., 20 min
[2] = target: T1, purified PTP domain of SHP2; conditions: previously reported value; read-out: IC50 SHP2 PTPase activity, parent compound; cited from earlier work
[3] = target: T2, purified PTP domain of SHP1 (Homo sapiens (Human), UniProt P29350); conditions: previously reported; cited from earlier work
[4] = target: T2, purified PTP domain of SHP1; test: PTPase assay with DiFMUP, SHP1; type: biochemical
[5] = target: purified PTP domain of PTP1B (Homo sapiens (Human), UniProt P18031); test: PTPase assay with DiFMUP, PTP1B; type: biochemical
[6] = target: SHP2 (Homo sapiens (Human), UniProt Q06124); test: Enzyme kinetic studies with DiFMUP (Michaelis-Menten, Lineweaver-Burk); type: biochemical; conditions: for Km: 36.05 in its absence
[7] = target: PTP1B (Homo sapiens (Human), UniProt P18031); test: CETSA with CNBCA, nontarget PTP1B in breast cancer cell lysates; type: binding; conditions: 100 μM CNBCA
[8] = target: FL-SHP2 (Homo sapiens (Human), UniProt Q06124); test: PTPase assay on FLAG-tagged FL-SHP2 immunoprecipitated from MDA-MB468 cells; type: biochemical; conditions: 20 μM DiFMUP
[9] = system: Akt and ERK1/2 activation in BT474 and MDA-MB468 cells; test: Immunoblotting for basal pERK1/2 and pAkt, CNBCA; type: cell-based; conditions: 48 h
[10] = system: BT474 and MDA-MB468 cells; test: Cell growth in 2D culture, CNBCA; type: cell-based; conditions: 500 nM, 72 h
[11] = system: BT474 and MDA-MB468 cells; test: Colony formation in soft agar, CNBCA; type: cell-based; conditions: 500 nM, 10 days
[12] = system: BT474 and MDA-MB468 cells; test: Mammosphere formation in suspension culture, CNBCA; type: cell-based; conditions: 500 nM, 10 days

T2 sequence (P29350 244-515): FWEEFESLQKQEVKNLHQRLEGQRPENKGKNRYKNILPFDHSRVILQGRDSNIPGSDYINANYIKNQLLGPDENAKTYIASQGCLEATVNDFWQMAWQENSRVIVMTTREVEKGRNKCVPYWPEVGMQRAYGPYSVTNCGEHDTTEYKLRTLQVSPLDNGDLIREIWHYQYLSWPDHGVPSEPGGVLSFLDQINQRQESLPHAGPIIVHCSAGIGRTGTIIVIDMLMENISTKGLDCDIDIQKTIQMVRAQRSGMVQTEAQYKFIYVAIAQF
PTP1B, sequence (P18031 whole entry): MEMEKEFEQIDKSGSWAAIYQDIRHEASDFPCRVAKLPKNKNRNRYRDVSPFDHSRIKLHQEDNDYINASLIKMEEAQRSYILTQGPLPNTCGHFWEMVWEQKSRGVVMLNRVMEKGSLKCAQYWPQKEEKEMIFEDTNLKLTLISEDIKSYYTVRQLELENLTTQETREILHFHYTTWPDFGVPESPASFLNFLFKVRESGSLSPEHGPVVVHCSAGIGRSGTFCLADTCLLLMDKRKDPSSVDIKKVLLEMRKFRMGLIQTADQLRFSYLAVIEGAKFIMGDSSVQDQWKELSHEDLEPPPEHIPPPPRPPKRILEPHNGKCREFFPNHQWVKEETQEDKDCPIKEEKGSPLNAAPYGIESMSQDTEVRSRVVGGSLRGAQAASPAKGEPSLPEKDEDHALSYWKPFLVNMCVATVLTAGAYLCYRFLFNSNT
purified PTP domain of PTP1B, sequence (P18031 3-277): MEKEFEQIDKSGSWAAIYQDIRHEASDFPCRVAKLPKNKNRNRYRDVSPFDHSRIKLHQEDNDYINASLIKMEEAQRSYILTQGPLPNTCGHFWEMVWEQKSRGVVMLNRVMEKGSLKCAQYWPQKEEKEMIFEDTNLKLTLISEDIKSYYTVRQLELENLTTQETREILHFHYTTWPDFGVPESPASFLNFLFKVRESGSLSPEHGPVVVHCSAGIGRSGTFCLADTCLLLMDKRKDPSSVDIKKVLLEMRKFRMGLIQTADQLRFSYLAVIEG

- fold difference [1]: 5.7
SMILES: CCCCCCCCCOc1c(CCCC(=O)O)cc(-c2ccc(C(=O)O)cc2)cc1CCCC(=O)O [CNBDA]
- IC50 [2]: 5 µM
- selective to SHP2 than to SHP1, parent compound [3]: approximately 25 fold

- better SHP2 IC50 than CNBBA [1]: 5.8 fold
- better SHP2 IC50 than the parent compound CNBDA [1]: 5.7 fold
- IC50 [1]: 0.87 µM
- Selectivity ratio, SHP2 ([1]; SHP2 IC50 as reference): 1.0
- fold difference [1]: 1.0
- IC50 ([4]; 35 μM DiFMUP): 34.6 µM
- more selective for SHP2 than for SHP1 ([4]; from IC50 values): 39.77 fold
- IC50 ([5]; 10 μM DiFMUP): 25 µM
- Selectivity ratio, PTP1B ([5]; PTP1B IC50 over SHP2 IC50): 28.73
- mechanism of inhibition [6]: competitive inhibitor
- Km ([6]; in the presence of 1.0 μM CNBCA): 125 µM
- Km ([6]; in the presence of 2.0 μM CNBCA): 291 µM
- nontarget PTP1B remaining in solution, band density ([7]; 49° C.): approximately 50%
- nontarget PTP1B remaining in solution, band density ([7]; 55° C.): 25%
- nontarget PTP1B remaining in solution, band density ([7]; 58° C.): less than 10%
- IC50 [8]: 0.615 µM
- IC50 ([9]; BT474 and MDA-MB468 cells, band density, read-out: approximate IC50, SHP2 mediated Akt and ERK1/2 activation): ~1 µM
SMILES: CCCCCCCCCOc1ccc(-c2ccc(C(=O)O)cc2)cc1CCCC(=O)O [CNBCA, 3′-(3-Carboxypropyl)-4′-(nonyloxy)-[1,1′-biphenyl]-4-carboxylic Acid]
- basal pERK1/2 and pAkt levels ([9]; 0.250 to 2.0 μM): downregulation of basal pERK1/2 and pAkt levels by CNBCA treatment in a concentration dependent manner
- cell growth in 2D culture [10]: still half-confluent
- colony formation in soft agar [11]: fewer and smaller colonies
- mammosphere formation [12]: fewer and smaller mammospheres

- IC50 [1]: 5.1 µM
- fold difference [1]: 5.8
SMILES: CCCCCCCCCOc1ccc(-c2ccc(CC(=O)O)cc2)cc1CCCC(=O)O [CNBBA, 4-(4′-(Carboxymethyl)-4-(nonyloxy)-[1,1′-biphenyl]-3-yl) Butanoic Acid]
